Measurements taken from US5075287A, “Muramyl peptide derivatives and immunoregulating compositions containing them” (priority 1989, dated 1991).
Read-outs that look alike come from different tables or passages of the source.

Columns and labels:
[1] = tested on: influenza HA vaccine (B/Nagasaki/1/87 strain); type: in vivo, female CDF1 mice; settings: Experiment 2, 8000-fold dilution
[2] = tested on: hepatitis B virus surface antigen (HBs); assay: Hepatitis-vaccine enhancing activity (adjuvant activity): anti-HBs IgG in mouse serum by ELISA; type: in vivo, female CDF1 mice; settings: Experiment 2, 2000-fold dilution
Method: A compound of the present invention was dissolved in lipidmicrosphere (1 mg/ml). On the other hand, a solution of hepatitis B virus surface antigen (HBs) in physiological saline was prepared (50 μg/ml). The above solutions in equal amounts were mixed to prepare a test solution. A control solution was prepared by the exclusion of the compound of the present invention from said test solution. A mixture of a suspension of aluminium hydroxide gel in physiological saline (1 mg/ml) and said hepatitis vaccine preparation in equal amounts was prepared as another control solution. The test solution (0.2 ml) was intraperitoneally administered to each mouse in one group consisting of seven female CDF1 mice.
Blood samples were collected from the fundus ocluli vein of each mouse every week after the administration and then centrifuged to obtain serums. Three weeks after the administration, 0.2 ml of the test liquid was intraperitoneally administered again to each mouse for secondary stimulation. Then blood collecting was conducted every week to obtain serums after the application of the secondary stimulation, in the same manner as that described above.
The amount of the IgG antibodies against the hepatitis B virus surface antigens (HBs) in the serums thus obtained was determined with an ELISA method.

[3] = 4 W (after secondary stimulation at 3 weeks)
[4] = 5 W (after secondary stimulation at 3 weeks)

SMILES | Anti HA serum antigen value (average value ± S.D.) ([1]; 1 W) [O.D 415 nm] | Anti HA serum antigen value (average value ± S.D.) ([1]; 2 W) [O.D 415 nm] | Anti HA serum antigen value (average value ± S.D.) ([1]; 3 W) [O.D 415 nm] | Anti HA serum antigen value (average value ± S.D.) [1, 3] [O.D 415 nm] | Anti HA serum antigen value (average value ± S.D.) [1, 4] [O.D 415 nm] | Anti-HBs IgG antibody level in serum (ELISA absorbance at 415 nm) ([2]; 1 W) [O.D 415 nm] | Anti-HBs IgG antibody level in serum (ELISA absorbance at 415 nm) ([2]; 2 W) [O.D 415 nm] | Anti-HBs IgG antibody level in serum (ELISA absorbance at 415 nm) ([2]; 3 W) [O.D 415 nm] | Anti-HBs IgG antibody level in serum (ELISA absorbance at 415 nm) [2, 3] [O.D 415 nm] | Anti-HBs IgG antibody level in serum (ELISA absorbance at 415 nm) [2, 4] [O.D 415 nm]
CCCCCCCCCCCCCCCCCC(=O)O[C@H](CCCCCCCCCCC)CC(=O)S[C@@H]1O[C@H](CO)[C@@H](O)[C@H](O[C@H](C)C(=O)N[C@@H](C)C(=O)N[C@H](CCC(=O)OC)C(N)=O)[C@H]1NC(C)=O [Example 23, N-[2-0-{2-Acetamido-2,3-dideoxy-1-S-((3R)-3-octadecanoyloxytetradecanoyl)-1-thio-β-D-glucopyranos-3-yl}-D-lactoyl]-L-alanyl-D-isoglutamine methylester] | 0.008 ± 0.005 | 0.096 ± 0.001 | 0.183 ± 0.004 | 0.949 ± 0.006 | 1.030 ± 0.003 | 0.004 ± 0.001 | 0.051 ± 0.003 | 0.092 ± 0.004 | 0.639 ± 0.003 | 0.626 ± 0.008
CCCCCCCCCCCCCCCCCCCCCCCC(=O)O[C@H](CCCCCCCCCCC)CC(=O)S[C@@H]1O[C@H](CO)[C@@H](O)[C@H](O[C@H](C)C(=O)N[C@@H](C)C(=O)N[C@H](CCC(=O)OC)C(N)=O)[C@H]1NC(C)=O [Example 27, N-[2-0-{2-Acetamido-2,3-dideoxy-1-S-((3R)-3-tetracosanoyloxytetradecanoyl)-1-thio-β-D-glucopyranos-3-yl}-D-lactoyl]-L-alanyl-D-isoglutamine methylester] | 0 | 0.110 ± 0.003 | 0.161 ± 0.003 | 0.751 ± 0.004 | 0.805 ± 0.008 | 0.003 ± 0.003 | 0.031 ± 0.002 | 0.052 ± 0.000 | 0.580 ± 0.016 | 0.573 ± 0.013
CCCCCCCCCCCCCCCCCC(=O)OC[C@H]1O[C@@H](SC(=O)C[C@@H](CCCCCCCCCCC)OC(=O)CCCCCCCCCCCCCCC)[C@H](NC(C)=O)[C@@H](O[C@H](C)C(=O)N[C@@H](C)C(=O)N[C@H](CCC(=O)OC)C(N)=O)[C@@H]1O [Example 20, N-[2-0-{2-Acetamido-2,3-dideoxy-6-0-octadecanoyl-1-S-((3R)-3-hexadecanoyloxytetradecanoyl)-1-thio-β-D-glucopyranos-3-yl}-D-lactoyl]-L-alanYl-D-isoglutamine methylester] | 0.001 ± 0.001 | 0.071 ± 0.001 | 0.110 ± 0.008 | 0.840 ± 0.011 | 0.857 ± 0.023 | 0.002 ± 0.001 | 0.044 ± 0.005 | 0.056 ± 0.003 | 0.814 ± 0.018 | 0.708 ± 0.002
CCCCCCCCCCCCCCCC(=O)O[C@H](CCCCCCCCCCC)CC(=O)S[C@@H]1O[C@H](CO)[C@@H](O)[C@H](O[C@H](C)C(=O)N[C@@H](C)C(=O)N[C@H](CCC(=O)OC)C(N)=O)[C@H]1NC(C)=O [Example 19] | 0 | 0.125 ± 0.003 | 0.187 ± 0.001 | 0.872 ± 0.002 | 0.936 ± 0.006 | 0 | 0.023 ± 0.000 | 0.042 ± 0.001 | 0.536 ± 0.011 | 0.521 ± 0.012
